Experimental data reported in patent US10550100B2, “5-[3-[piperzin-1-yl]-3-oxo-propyl]-imidazolidine-2,4-dione derivatives as ADAMTS 4 and 5 inhibitors for treating E.G. osteoarthritis” (GALAPAGOS NV, priority 2016, dated 2020).
Like-named read-outs stand apart in the source and are kept apart here.

Key:
Format in all cases: biochemical
human ADAMTS6 = human ADAMTS6 (Homo sapiens (Human), UniProt Q9UKP5); assay: hADAMTS-6 520 MMP FRET substrate XII cleavage assay; settings: 37° C. for 2 h, read-out: hADAMTS-6 potency IC50
human ADAMTS6, sequence (Q9UKP5 other isoform, or with tags, fused parts or gaps): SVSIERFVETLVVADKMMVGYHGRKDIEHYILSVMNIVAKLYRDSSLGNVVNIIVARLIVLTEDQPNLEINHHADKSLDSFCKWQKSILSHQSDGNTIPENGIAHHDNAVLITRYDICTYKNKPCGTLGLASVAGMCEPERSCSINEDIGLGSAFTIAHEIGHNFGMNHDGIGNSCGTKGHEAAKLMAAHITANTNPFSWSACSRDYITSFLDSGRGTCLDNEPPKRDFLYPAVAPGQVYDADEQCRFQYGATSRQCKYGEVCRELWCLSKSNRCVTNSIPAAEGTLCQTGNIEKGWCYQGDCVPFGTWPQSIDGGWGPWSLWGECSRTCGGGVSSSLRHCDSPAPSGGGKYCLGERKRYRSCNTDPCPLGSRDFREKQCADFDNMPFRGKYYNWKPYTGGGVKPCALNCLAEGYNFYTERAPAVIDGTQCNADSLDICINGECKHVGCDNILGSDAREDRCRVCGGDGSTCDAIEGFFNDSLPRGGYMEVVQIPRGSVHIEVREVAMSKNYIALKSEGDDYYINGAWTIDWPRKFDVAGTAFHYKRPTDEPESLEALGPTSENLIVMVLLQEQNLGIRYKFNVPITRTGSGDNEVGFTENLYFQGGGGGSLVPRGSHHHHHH
Text: The IC50 value for test compounds can be determined in a fluorescent based protease assay.
The basis for the assay is the cleavage of the substrate 520 MMP FRET substrate XII by human ADAMTS6.
The substrate contains sequence Arg-Pro-Lys-Pro-Tyr-Ala-Nva-Trp-Met-Lys (SEQ ID NO: 7) with attached a fluorescent probe and a quencher. Without ADAMTS6, the emission of the probe is quenched. If the substrate is cleaved by ADAMTS6, the emission of the probe is not quenched anymore. Inhibition of ADAMTS6 activity, will result in a decrease of the signal.
To perform the assay, 4 μL of a dilution series of compound in water, starting from 20 μM highest concentration, 1/5 dilution, is added to the wells. 2 ng ADAMTS6 enzyme is diluted in 25 mM Tris pH8.0, 0.05% CHAPS, 2.5 mM CaCl2 in a total volume of 26 μL (final concentration 0.73 nM). The reaction is started by addition of 10 μL of 1 μM 520 MMP FRET Substrate XII (final concentration, diluted in same buffer as described above) and the mixture is incubated at 37° C. for 2 h. […] After this incubation, cleavage of the substrate is measured using the Envision (Perkin Elmer, exc485/em530).

human TACE = human TACE (Homo sapiens (Human), UniProt P78536); assay: hTACE 5FAM-[…]-5TAMRA cleavage assay; settings: 75 min at room temperature, read-out: hTACE potency IC50
human TACE, sequence (P78536 215-671): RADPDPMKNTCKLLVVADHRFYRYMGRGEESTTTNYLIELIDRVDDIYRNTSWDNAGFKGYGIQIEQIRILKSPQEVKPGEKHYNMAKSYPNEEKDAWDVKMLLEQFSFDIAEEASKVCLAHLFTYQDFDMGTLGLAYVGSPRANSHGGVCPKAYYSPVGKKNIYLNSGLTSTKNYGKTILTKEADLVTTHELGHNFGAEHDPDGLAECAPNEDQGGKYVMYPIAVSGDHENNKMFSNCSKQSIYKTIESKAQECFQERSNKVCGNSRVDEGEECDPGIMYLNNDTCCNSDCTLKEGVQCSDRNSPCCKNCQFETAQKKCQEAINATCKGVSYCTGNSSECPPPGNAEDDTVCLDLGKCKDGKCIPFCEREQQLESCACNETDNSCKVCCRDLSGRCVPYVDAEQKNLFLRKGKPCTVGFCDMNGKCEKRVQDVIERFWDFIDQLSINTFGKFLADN
Experimental: Finally, the fluorescence is read on the Envision (Perkin Elmer) after an incubation of 75 min at room temperature (Excitation 485 nm, Emission 530).

human MMP13 = human MMP13 (Homo sapiens (Human), UniProt P45452); assay: hMMP13 390 MMP FRET Substrate I cleavage assay, Protocol 2; settings: Protocol 2, 390 MMP FRET Substrate I; read-out: hMMP-13 potency IC50
Experimental: The basis for the assay is the cleavage of the substrate 390 MMP FRET Substrate I (Anaspec Cat# AS-27076) by human MMP13 (Chemicon, Cat#CC068).
Human MMP13 is preactivated by incubated the enzyme in the same buffer complemented with 1 mM freshly prepared p-Aminophenylmercuric acetate (AMPA) for 1 h at 37° C.
(§1) The reaction is initiated by adding to the assay plate 390 MMP FRET Substrate I (10 μL, 2.5 μM) in the same buffer.
Finally, the fluorescence is read on the Envision (Perkin Elmer) after an incubation of 45 min at room temperature (Excitation 485 nm, Emission 530).

human MMP14 = human MMP14 (Homo sapiens (Human), UniProt P50281); assay: hMMP14 390 MMP FRET Substrate I cleavage assay; settings: 60 min at room temperature, read-out: hMMP-14 potency IC50
Experimental: The basis for the assay is the cleavage of the substrate 390 MMP FRET Substrate I (Anaspec Cat# AS-27076) by human MMP14 (Biomol, Cat#SE-259).
as §1
Finally, the fluorescence is read on the Envision (Perkin Elmer) after an incubation of 60 min at room temperature (Excitation 485 nm, Emission 530).

human ADAMTS-5 = human ADAMTS-5 (Homo sapiens (Human), UniProt Q9UNA0); assay: hADAMTS-5 TBIS-1 cleavage assay, Protocol 3; settings: Protocol 3, TBIS-1 substrate, 90 min at 37° C.; read-out: hADAMTS-5 potency IC50
human ADAMTS-5, sequence (Q9UNA0 262-930): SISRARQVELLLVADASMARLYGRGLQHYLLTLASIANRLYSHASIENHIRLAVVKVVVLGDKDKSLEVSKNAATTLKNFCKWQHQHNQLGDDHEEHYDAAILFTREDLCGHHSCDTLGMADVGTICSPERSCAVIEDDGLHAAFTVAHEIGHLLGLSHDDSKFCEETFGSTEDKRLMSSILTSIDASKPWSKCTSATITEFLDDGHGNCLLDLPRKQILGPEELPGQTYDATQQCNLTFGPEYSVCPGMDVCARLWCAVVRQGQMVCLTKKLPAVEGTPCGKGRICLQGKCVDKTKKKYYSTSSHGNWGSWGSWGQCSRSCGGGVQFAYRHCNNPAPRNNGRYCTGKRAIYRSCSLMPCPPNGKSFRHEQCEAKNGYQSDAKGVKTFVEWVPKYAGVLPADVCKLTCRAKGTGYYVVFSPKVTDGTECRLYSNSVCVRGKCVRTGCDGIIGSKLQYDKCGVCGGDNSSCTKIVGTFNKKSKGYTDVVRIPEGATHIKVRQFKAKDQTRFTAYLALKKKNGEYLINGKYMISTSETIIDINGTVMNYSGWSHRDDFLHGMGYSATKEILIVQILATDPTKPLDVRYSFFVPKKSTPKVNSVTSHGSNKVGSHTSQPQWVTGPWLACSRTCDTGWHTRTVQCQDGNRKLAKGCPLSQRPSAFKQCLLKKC
Experimental: The reaction is initiated by adding to the assay plate TBIS-1 (10 μL, 4.5 μM, Anaspec) in the same buffer.
Finally, the fluorescence is read on the Envision (Perkin Elmer) after an incubation of 90 min at 37° C. (Excitation 485 nm, emission 530).

| IC50 (human ADAMTS6) [nM] | IC50 (human TACE; 5FAM-[…]-5TAMRA) [nM] | IC50 (human MMP13) [nM] | IC50 (human MMP14) [nM] | IC50 (human ADAMTS-5) [nM] | IC50 (human TACE; 5FAM-LAQAVRSSSRK-5TAMRA) [nM] | SMILES |
| --- | --- | --- | --- | --- | --- | --- |
| 0.001 to 25 | 50 to 100 | > 100 | > 100 |  |  | COc1cc(F)c(Cl)cc1C1CCN(C(=O)[C@@H](C)C[C@@]2(C)NC(=O)NC2=O)CC1 (stereo in doubt) [Cpd 111, 5-[3-[4-(5-chloro-4-fluoro-2-methoxy-phenyl)-1-piperidyl]-2-methyl-3-oxo-propyl]-5-methyl-imidazolidine-2,4-dione] |
| 0.001 to 25 | 50 to 100 | > 100 | > 100 | > 100 |  | COc1cc(C2CCN(C(=O)CC[C@H]3NC(=O)NC3=O)CC2)cc(C)c1Cl [Cpd 115, (5R)-5-[3-[4-(4-chloro-3-methoxy-5-methyl-phenyl)-1-piperidyl]-3-oxo-propyl] imidazolidine-2,4-dione] |
| 0.001 to 25 | 50 to 100 | > 100 | > 100 |  |  | COC[C@]1(C[C@H](C)C(=O)N2CCC(c3ccc(Cl)cc3OC)CC2)NC(=O)NC1=O (stereo in doubt) [Cpd 108, 5-[3-[4-(4-chloro-2-methoxy-phenyl)-1-piperidyl]-2-methyl-3-oxo-propyl]-5-(methoxymethyl) imidazolidine-2,4-dione] |
| 0.001 to 25 |  | > 100 | > 100 | > 100 | > 100 | COc1cc(Cl)c(Cl)cc1C1CCN(C(=O)CC[C@H]2NC(=O)NC2=O)CC1 [Cpd 61, (R)-5-(3-(4-(4,5-dichloro-2-methoxyphenyl)piperidin-1-tl)-3-oxopropyl) imidazolidine-2,4-dione] |
| 0.001 to 25 | 50 to 100 | > 100 | > 100 | > 100 |  | COc1cc(C2CCN(C(=O)CC[C@@]3(C)NC(=O)NC3=O)CC2)cc(N(C)C)c1Cl [Cpd 90, (5R)-5-[3-[4-[4-chloro-3-(dimethylamino)-5-methoxy-phenyl]-1-piperidyl]-3-oxo-propyl]-5-methyl-imidazolidine-2,4-dione] |
| 0.001 to 25 | 50 to 100 | > 100 | > 100 |  |  | COC[C@]1(C[C@H](C)C(=O)N2CCC(c3cc(Cl)c(F)cc3OC)CC2)NC(=O)NC1=O (stereo in doubt) [Cpd 107, 5-[3-[4-(5-chloro-4-fluoro-2-methoxy-phenyl)-1-piperidyl]-2-methyl-3-oxo-propyl]-5-(methoxymethyl) imidazolidine-2,4-dione] |
| 0.001 to 25 | 50 to 100 | > 100 | > 100 | 0.001 to 25 |  | COC[C@]1(C[C@H](C)C(=O)N2CCC(c3cc(F)c(Cl)c(OC)c3)CC2)NC(=O)NC1=O (stereo in doubt) [Cpd 103, 5-[3-[4-(4-chloro-3-fluoro-5-methoxy-phenyl)-1-piperidyl]-2-methyl-3-oxo-propyl]-5-(methoxymethyl) imidazolidine-2,4-dione] |
| 0.001 to 25 | 50 to 100 | > 100 | > 100 |  |  | COc1cc(C2CCN(C(=O)CC[C@@]3(C)NC(=O)NC3=O)CC2)cc(F)c1Cl [Cpd 84, (5R)-5-[3-[4-(4-chloro-3-fluoro-5-methoxy-phenyl)-1-piperidyl]-3-oxo-propyl]-5-methyl-imidazolidine-2,4-dione] |
| 0.001 to 25 | 50 to 100 | > 100 | > 100 | > 100 |  | COc1cc(Cl)c(Cl)cc1C1CCN(C(=O)CC[C@@]2(C)NC(=O)NC2=O)CC1 [Cpd 96, (5R)-5-[3-[4-(4,5-dichloro-2-methoxy-phenyl)-1-piperidyl]-3-oxo-propyl]-5-methyl-imidazolidine-2,4-dione] |
| 0.001 to 25 | 50 to 100 | > 100 | > 100 | > 100 |  | Cc1cc(Cl)c(Cl)cc1C1CCN(C(=O)CCC2(C)NC(=O)NC2=O)CC1 (stereo not shown) [Cpd 71, 5-(3-(4-(4,5-dichloro-2-methylphenyl)piperidin-1-yl)-3-oxopropyl)-5-methylimidazolidine-2,4-dione] |
| 0.001 to 25 | 50 to 100 | > 100 | > 100 | > 100 |  | COc1cc(Cl)c(C)cc1C1CCN(C(=O)CC[C@@]2(C)NC(=O)NC2=O)CC1 [Cpd 89, (5R)-5-[3-[4-(4-chloro-2-methoxy-5-methyl-phenyl)-1-piperidyl]-3-oxo-propyl]-5-methyl-imidazolidine-2,4-dione] |
| 0.001 to 25 |  | > 100 | > 100 | > 100 | > 100 | COc1cc(C2CCN(C(=O)CCC3(C)NC(=O)NC3=O)CC2)cc(Cl)c1F (stereo not shown) [Cpd 73, 5-(3-(4-(3-chloro-4-fluoro-5-methoxyphenyl)piperidin-1-yl)-3-oxopropyl)-5-methylimidazolidine-2,4-dione] |
| 0.001 to 25 |  | > 100 | > 100 | > 100 | > 100 | COc1cc(Cl)ccc1C1CCN(C(=O)CC[C@@]2(C)NC(=O)NC2=O)CC1 [Cpd 79, (5R)-5-[3-[4-(4-chloro-2-methoxy-phenyl)-1-piperidyl]-3-oxo-propyl]-5-methyl-imidazolidine-2,4-dione] |
| 0.001 to 25 | 25 to 50 | > 100 | > 100 | 50 to 100 |  | COc1cc(C2CCN(C(=O)CC[C@@]3(C)NC(=O)NC3=O)CC2)cc(C)c1Cl [Cpd 98, (5R)-5-[3-[4-(4-chloro-3-methoxy-5-methyl-phenyl)-1-piperidyl]-3-oxo-propyl]-5-methyl-imidazolidine-2,4-dione] |
| 0.001 to 25 | 50 to 100 | > 100 | > 100 |  |  | COC[C@]1(C[C@H](C)C(=O)N2CCC(c3cc(F)c(Cl)cc3OC)CC2)NC(=O)NC1=O (stereo in doubt) [Cpd 109, 5-[3-[4-(4-chloro-5-fluoro-2-methoxy-phenyl)-1-piperidyl]-2-methyl-3-oxo-propyl]-5-(methoxymethyl) imidazolidine-2,4-dione] |
| 0.001 to 25 |  | > 100 | > 100 |  | > 100 | COc1cc(Cl)ccc1C1CCN(C(=O)[C@@H](C)C[C@@]2(C)NC(=O)NC2=O)CC1 (stereo in doubt) [Cpd 97, 5-[3-[4-(4-chloro-2-methoxy-phenyl)-1-piperidyl]-2-methyl-3-oxo-propyl]-5-methyl-imidazolidine-2,4-dione] |
| 0.001 to 25 |  | > 100 | > 100 | > 100 | > 100 | COc1cc(Cl)c(F)cc1C1CCN(C(=O)CC[C@@]2(C)NC(=O)NC2=O)CC1 [Cpd 100, (5R)-5-[3-[4-(4-chloro-5-fluoro-2-methoxy-phenyl)-1-piperidyl]-3-oxo-propyl]-5-methyl-imidazolidine-2,4-dione] |
| 0.001 to 25 | 50 to 100 | > 100 | > 100 | > 100 |  | Cc1cc(C2CCN(C(=O)CC[C@@]3(C)NC(=O)NC3=O)CC2)cc(C)c1Cl [Cpd 93, (5R)-5-[3-[4-(4-chloro-3,5-dimethyl-phenyl)-1-piperidyl]-3-oxo-propyl]-5-methyl-imidazolidine-2,4-dione] |
| 0.001 to 25 | 50 to 100 | > 100 | > 100 |  |  | COc1cc(C2CCN(C(=O)CC[C@@]3(C)NC(=O)NC3=O)CC2)ccc1Cl [Cpd 85, (5R)-5-[3-[4-(4-chloro-3-methoxy-phenyl)-1-piperidyl]-3-oxo-propyl]-5-methyl-imidazolidine-2,4-dione] |
